Data from patent US12606561B2, “Substituted pyrazolo[1,5-a][1,3,5]triazines as CDK inhibitors” (QURIENT CO., LTD., priority 2018, dated 2026).

Legend:
CDK1/Cyclin B = target: T1, CDK1/Cyclin B (Homo sapiens, UniProt P06493); assay: Enzymatic assay for CDK1 (LANCE Ultra kinase assay, FRET based); type: biochemical; conditions: ATP at Km; read-out: CDK1 enzymatic activity IC50
T1 construct: purchased Invitrogen PR4768C
Outline: (§1)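 FRET read-out: Eu-labeled anti-phospho-antibody binding a phosphorylated ULight peptide. Purified CDK–cyclin complex, ATP at Km.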

CDK5/p25 = target: T2, CDK5/p25 (Homo sapiens, UniProt Q00535); assay: Enzymatic assay for CDK5 (LANCE Ultra kinase assay, FRET based); type: biochemical; conditions: ATP at Km
T2 construct: purchased Invitrogen PR8543B
Outline: (§2)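 Compounds tested as 8 doses in 4-fold steps against CDK2/Cyclin A ([…]) or CDK5/p25 ([…]), with ATP at its Km and 68 nM ULight-MBP substrate. After 60 min at 23° C., EDTA plus Eu-labelled anti-phospho-MBP added; TR-FRET (615/665 nm) read after another 60 min.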

OVCAR-3 = OVCAR-3 viability assay (CellTiter-Glo, 72 hours); type: cell-based; conditions: Homo sapiens; OVCAR-3 cells
Protocol: Human […] cell line, MV4-11_(ATCC, Cat #CRL-9591), NSCLC (Non-small cell lung cancer) cell line H460 (ATCC, Cat #HTB-177), A2780 (ECACC, Cat #93112519) and OVCAR-3(ATCC, Cat #HTB-161) were obtained from ATCC. Cells were grown in RPMI-1640 media (Invitrogen, Cat #22400-089) supplemented with 10% FBS (Invitrogen, Cat #10099141) and 1% penicillin/streptomycin (Invitrogen, Cat #15070063) and cultured at 37° C., 5% CO2 in a humidified chamber. All cell lines were routinely tested for mycoplasma.
To effect of the CDK7 inhibitor to inhibit the growth of target cancer cells, viability assay were conducted a 72 hour time period. Briefly, the candidate cell line was plated in 96 well plate at the following density of cells respectively. 1×10^4 cells/well for MV4-11, 5×10^3 for H460 and OVCAR-3, and 1×10^3 for A2780. After 24 hours, the cells were treated with various concentrations of the compound (ranging from 0.0015 uM to 10 uM). DMSO solvent without compound served as a control and final DMSO concentration lest than 0.1%. After 72 hours of incubation at 37° C., 5% CO2 incubator, cells were analyzed for the viability using the CellTiter-Glo Luminescent Cell Viability Assay (Promega, Cat #G7570). All viability assays were performed in duplicate and Luminescence was read using an Envision (Perkin Elmer, USA). Data was analyzed using XLfit software.

CDK2/Cyclin A = target: T3, CDK2/Cyclin A (Homo sapiens, UniProt P24941); assay: Enzymatic assay for CDK2 (LANCE Ultra kinase assay, FRET based); type: biochemical; conditions: ATP at Km
T3 construct: purchased Invitrogen PV6290
Outline: as §2

CDK7/Cyclin H/MNAT1 = target: T4, CDK7/Cyclin H/MNAT1 (Homo sapiens, UniProt P50613); assay: Enzymatic assay for CDK7 (LANCE Ultra kinase assay, FRET based); type: biochemical; conditions: for IC50: ATP at Km
T4 construct: purchased Invitrogen PR6749B
Outline: as §1

A2780 = A2780 viability assay (CellTiter-Glo, 72 hours); type: cell-based; conditions: Homo sapiens; A2780 cells
Outline: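 CellTiter-Glo luminescence read-out after 72 h compound exposure at 37° C, 5% CO2, duplicates. Seeding densities: MV4-11 1×10^4 cells/well, OVCAR-3 5×10^3, A2780 1×10^3. Dose range 0.0015 uM to 10 uM, added 24 h post-plating; DMSO control, final <0.1%.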

T1 sequence (P06493 whole entry): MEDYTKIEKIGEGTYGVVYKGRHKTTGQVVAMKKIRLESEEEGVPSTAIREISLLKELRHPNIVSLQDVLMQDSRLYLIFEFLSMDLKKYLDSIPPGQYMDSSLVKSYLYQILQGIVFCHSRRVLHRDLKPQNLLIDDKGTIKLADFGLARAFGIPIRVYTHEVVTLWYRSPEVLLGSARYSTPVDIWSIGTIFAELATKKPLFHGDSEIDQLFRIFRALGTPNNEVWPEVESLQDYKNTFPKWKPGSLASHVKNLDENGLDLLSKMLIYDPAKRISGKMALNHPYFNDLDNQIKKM
T1 sequence (P14635 whole entry partner): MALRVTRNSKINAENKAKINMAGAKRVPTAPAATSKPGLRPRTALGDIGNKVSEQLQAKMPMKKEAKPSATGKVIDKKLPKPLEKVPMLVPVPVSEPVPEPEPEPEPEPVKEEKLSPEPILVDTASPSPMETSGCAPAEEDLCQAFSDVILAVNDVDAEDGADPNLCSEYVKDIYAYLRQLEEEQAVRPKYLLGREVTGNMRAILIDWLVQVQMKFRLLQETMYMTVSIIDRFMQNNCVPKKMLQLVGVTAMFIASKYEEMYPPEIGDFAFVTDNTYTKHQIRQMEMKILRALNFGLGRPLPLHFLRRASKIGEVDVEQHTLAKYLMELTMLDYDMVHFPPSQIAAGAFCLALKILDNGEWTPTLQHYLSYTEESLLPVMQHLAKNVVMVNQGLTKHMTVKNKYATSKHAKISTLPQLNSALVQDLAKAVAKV
T2 sequence (Q00535 whole entry): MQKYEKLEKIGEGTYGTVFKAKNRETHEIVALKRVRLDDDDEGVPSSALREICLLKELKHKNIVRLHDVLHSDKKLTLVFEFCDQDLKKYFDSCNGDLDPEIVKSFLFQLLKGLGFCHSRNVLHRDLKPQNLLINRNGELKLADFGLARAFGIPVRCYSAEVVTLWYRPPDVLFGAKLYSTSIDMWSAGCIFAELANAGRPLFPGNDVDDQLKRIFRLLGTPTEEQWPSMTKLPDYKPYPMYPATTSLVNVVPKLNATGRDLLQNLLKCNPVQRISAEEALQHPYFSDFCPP
T2 sequence (Q15078 99-307 partner limits assumed): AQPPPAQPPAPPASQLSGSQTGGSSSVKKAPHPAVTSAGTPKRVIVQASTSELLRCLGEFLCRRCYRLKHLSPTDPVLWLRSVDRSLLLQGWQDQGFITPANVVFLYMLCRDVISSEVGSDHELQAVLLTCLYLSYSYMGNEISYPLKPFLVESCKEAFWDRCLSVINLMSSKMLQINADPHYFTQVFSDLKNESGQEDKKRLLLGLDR
T4 sequence (P50613 whole entry): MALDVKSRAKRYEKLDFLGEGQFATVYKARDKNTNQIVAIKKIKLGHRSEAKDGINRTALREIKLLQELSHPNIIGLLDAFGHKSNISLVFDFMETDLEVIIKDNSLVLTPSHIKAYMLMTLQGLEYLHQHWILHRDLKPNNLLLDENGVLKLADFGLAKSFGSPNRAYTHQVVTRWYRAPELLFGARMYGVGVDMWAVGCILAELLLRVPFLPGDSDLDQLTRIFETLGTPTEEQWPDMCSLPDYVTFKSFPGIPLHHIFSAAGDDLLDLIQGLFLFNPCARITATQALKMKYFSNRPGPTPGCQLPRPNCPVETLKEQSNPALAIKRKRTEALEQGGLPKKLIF
T4 sequence (P51946 whole entry partner): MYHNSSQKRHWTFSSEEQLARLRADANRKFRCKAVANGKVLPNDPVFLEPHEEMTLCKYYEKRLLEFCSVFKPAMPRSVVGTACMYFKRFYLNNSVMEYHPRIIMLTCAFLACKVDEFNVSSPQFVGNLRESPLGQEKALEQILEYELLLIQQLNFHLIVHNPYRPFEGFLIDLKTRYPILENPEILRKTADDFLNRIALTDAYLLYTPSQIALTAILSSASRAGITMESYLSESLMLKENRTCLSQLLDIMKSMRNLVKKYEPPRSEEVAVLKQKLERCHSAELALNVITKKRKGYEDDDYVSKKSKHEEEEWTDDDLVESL
T4 sequence (P51948 whole entry partner): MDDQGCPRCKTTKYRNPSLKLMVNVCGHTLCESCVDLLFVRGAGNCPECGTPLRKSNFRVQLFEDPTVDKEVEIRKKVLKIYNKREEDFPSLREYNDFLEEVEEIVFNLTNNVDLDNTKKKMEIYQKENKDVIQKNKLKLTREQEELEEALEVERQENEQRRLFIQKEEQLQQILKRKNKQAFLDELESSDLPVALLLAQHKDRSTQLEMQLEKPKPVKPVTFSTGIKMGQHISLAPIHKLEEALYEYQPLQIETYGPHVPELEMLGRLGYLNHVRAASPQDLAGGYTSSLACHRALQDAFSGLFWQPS

SMILES | IC50 (CDK1/Cyclin B) | IC50 (CDK5/p25) | IC50 (OVCAR-3) | IC50 (CDK2/Cyclin A) | IC50 (CDK7/Cyclin H/MNAT1) | CDK1/CDK7: Selectivity of CDK7 inhibition over CDK1 inhibition (CDK7/Cyclin H/MNAT1) | CDK2/CDK7: Selectivity of CDK7 inhibition over CDK2 inhibition (CDK7/Cyclin H/MNAT1) | CDK5/CDK7: Selectivity of CDK7 inhibition over CDK5 inhibition (CDK7/Cyclin H/MNAT1) | IC50 (A2780)
COC1CC2CCC(C1)N2c1nc(NCc2ccccc2-c2nccc3cc(NC(=O)/C=C/CN(C)C)ccc23)n2ncc(C(C)C)c2n1 (stereo not drawn) [Compound 103] | > 1000 nM | > 1000 nM | < 1000 nM | > 1000 nM | < 100 nM | B (B indicates 50 < [fold] ≤ 500) | B (B indicates 50 < [fold] ≤ 500) | B (B indicates 50 < [fold] ≤ 500) | < 1000 nM
CC(C)c1cnn2c(NCc3ccccc3-c3nccc4cc(NC(=O)/C=C/CN(C)C)ccc34)nc(N3CC4COCC4C3)nc12 (stereo not drawn) [Compound 104] | > 1000 nM | > 1000 nM | < 1000 nM | > 1000 nM | 100 to 1000 nM | B (B indicates 50 < [fold] ≤ 500) | B (B indicates 50 < [fold] ≤ 500) | B (B indicates 50 < [fold] ≤ 500) | < 1000 nM
CC(C)c1cnn2c(NCc3ccccc3-c3nccc4cc(NC(=O)/C=C/CN(C)C)ccc34)nc(N3CCC(C#N)CC3)nc12 [Compound 105] | > 1000 nM | > 1000 nM | < 1000 nM | > 1000 nM | 100 to 1000 nM | B (B indicates 50 < [fold] ≤ 500) | B (B indicates 50 < [fold] ≤ 500) | B (B indicates 50 < [fold] ≤ 500) | < 1000 nM
CC(C)c1cnn2c(NCc3ccccc3-c3nccc4cc(NC(=O)/C=C/CN(C)C)ccc34)nc(N3CCC(=O)CC3)nc12 [Compound 106] | > 1000 nM | > 1000 nM | < 1000 nM | > 1000 nM | 100 to 1000 nM | C (C indicates [fold] ≤ 50) | C (C indicates [fold] ≤ 50) | C (C indicates [fold] ≤ 50) | < 1000 nM
CC(C)c1cnn2c(NCc3ccccc3-c3nccc4cc(NC(=O)/C=C/CN(C)C)ccc34)nc(NC3CCS(=O)(=O)CC3)nc12 [Compound 107] | > 1000 nM | > 1000 nM | < 1000 nM | > 1000 nM | 100 to 1000 nM | B (B indicates 50 < [fold] ≤ 500) | B (B indicates 50 < [fold] ≤ 500) | B (B indicates 50 < [fold] ≤ 500) | < 1000 nM
CC(C)c1cnn2c(NCc3ccccc3-c3nccc4cc(NC(=O)/C=C/CN(C)C)ccc34)nc(N3CC4(COC4)C3)nc12 [Compound 108] | > 1000 nM | > 1000 nM | < 1000 nM | > 1000 nM | 100 to 1000 nM | C (C indicates [fold] ≤ 50) | C (C indicates [fold] ≤ 50) | C (C indicates [fold] ≤ 50) | < 1000 nM
CC(C)c1cnn2c(NCc3ccccc3-c3nccc4cc(NC(=O)/C=C/CN(C)C)ccc34)nc(NC[C@H]3CNC[C@@H]3O)nc12 [Compound 109] | > 1000 nM | > 1000 nM | 1000 to 10000 nM | > 1000 nM | < 100 nM | A (A indicates [fold] > 500) | A (A indicates [fold] > 500) | A (A indicates [fold] > 500) | 1000 to 10000 nM
CC(C)c1cnn2c(NCc3ccccc3-c3nccc4cc(NC(=O)/C=C/CN(C)C)ccc34)nc(N3CCC4(CC3)OCCO4)nc12 [Compound 110] | > 1000 nM | > 1000 nM | < 1000 nM | > 1000 nM | < 100 nM | B (B indicates 50 < [fold] ≤ 500) | B (B indicates 50 < [fold] ≤ 500) | B (B indicates 50 < [fold] ≤ 500) | < 1000 nM
C=CC(=O)Nc1ccc2c(-c3ccccc3CNc3nc(NC[C@H]4CNC[C@@H]4O)nc4c(C(C)C)cnn34)nccc2c1 [Compound 111] | > 1000 nM | > 1000 nM | < 1000 nM | > 1000 nM | < 100 nM | A (A indicates [fold] > 500) | A (A indicates [fold] > 500) | A (A indicates [fold] > 500) | < 1000 nM
C=CC(=O)Nc1cccc2ccc(-c3cccc(C)c3CNc3nc(N[C@H]4CC[C@H](OC)CC4)nc4c(C(C)C)cnn34)nc12 [Compound 112] | > 1000 nM | > 1000 nM | < 1000 nM | > 1000 nM | 100 to 1000 nM | B (B indicates 50 < [fold] ≤ 500) | B (B indicates 50 < [fold] ≤ 500) | B (B indicates 50 < [fold] ≤ 500) | < 1000 nM
C=CC(=O)Nc1ccc2c(-c3ccccc3CNc3nc(N4CCS(=O)(=O)CC4)nc4c(C(C)C)cnn34)nccc2c1 [Compound 113] | > 1000 nM | > 1000 nM | < 1000 nM | > 1000 nM | < 100 nM | B (B indicates 50 < [fold] ≤ 500) | B (B indicates 50 < [fold] ≤ 500) | B (B indicates 50 < [fold] ≤ 500) | < 1000 nM
C=CC(=O)Nc1ccc2c(-c3ccccc3CNc3nc(N4C5CCC4CC(O)C5)nc4c(C(C)C)cnn34)nccc2c1 (stereo not drawn) [Compound 114] | > 1000 nM | > 1000 nM | < 1000 nM | > 1000 nM | < 100 nM | A (A indicates [fold] > 500) | A (A indicates [fold] > 500) | A (A indicates [fold] > 500) | 1000 to 10000 nM
